In patent publication US9447136B2, “Semisynthetic derivatives of Nystatin A1” (BLIRT S.A., priority 2012, dated 2016):

Key:
Assay in all cases: Antifungal activity in vitro, serial dilution in RPMI 1640
Format in all cases: cell-based
[1] = test system: Candida albicans ATCC 10231; conditions: Table 2A, RPMI 1640, pH 7.0; for Antifungal activity Candida albicans ATCC 10231 IC50: A531 50% of control; for Antifungal activity Candida albicans ATCC 10231 MIC: A531 at most 20% of control
Experimental: (§1) For the determination of antifungal activity in vitro we used method of serial dilution in buffered medium RPMI 1640, pH 7.0, in a 96-wells microplates, according to the standard procedure (National Committee for Clinical Laboratory Standards. Reference method for broth dilution antifungal susceptibility testing of yeast, approved standard, 2nd ed. M27-A2 vol. 22 Wayne, Pa., 2002). The optical density of cells suspension was measured using a microplates reader (Victor^3, Perkin-Elmer) at the wavelength λ=531 nm (A531). On the basis of obtained results the diagrams of relation between A531 values and concentration of examined compound were made. From these graphs, the IC50 values were read, which were the interpolated concentrations of a tested compound, at which the A531 value was exactly 50% of the A531 value for the control sample. Moreover, MIC values, that are the lowest concentration of tested compound at which the A531 value were at most 20% of the A531 value measured for the control sample.

[2] = test system: Candida glabrata DSM 11226; conditions: Table 2A; RPMI 1640, pH 7.0
Experimental: as §1

Candida krusei DSM 6128 = conditions: Table 2A; RPMI 1640, pH 7.0
Experimental: as §1

[3] = test system: Candida lusitaniae DSM 70102; conditions: Table 2A; RPMI 1640, pH 7.0
Experimental: as §1

[4] = test system: Candida tropicalis KKP 334; conditions: Table 2A; RPMI 1640, pH 7.0
Experimental: as §1

[5] = test system: Saccharomyces cerevisiae ATCC 9763; conditions: Table 2A; RPMI 1640, pH 7.0; A531 at most 20% of control
Experimental: as §1

| Compound | Antifungal activity Candida albicans ATCC 10231 IC50 [1] | Antifungal activity Candida albicans ATCC 10231 MIC [1] | Antifungal activity Candida glabrata DSM 11226 MIC [2] | Antifungal activity Candida krusei DSM 6128 MIC (Candida krusei DSM 6128) | Antifungal activity Candida lusitaniae DSM 70102 MIC [3] | Antifungal activity Candida tropicalis KKP 334 MIC [4] | Antifungal activity Saccharomyces cerevisiae ATCC 9763 MIC [5] |
| --- | --- | --- | --- | --- | --- | --- | --- |
| C[C@@H]1[C@H](O)[C@@H](C)/C=C/C=C/CC/C=C/C=C/C=C/C=C/[C@H](O[C@@H]2O[C@H](C)[C@@H](O)[C@H](NC(=S)NCCN(C)C)[C@@H]2O)C[C@@H]2O[C@](O)(C[C@@H](O)C[C@@H](O)[C@H](O)CC[C@@H](O)C[C@@H](O)CC(=O)O[C@H]1C)C[C@H](O)[C@H]2C(=O)O [Compound N18, N-{3-[2-(N,N-dimethylamino)ethyl]thioureidyl}nystatin A1] | 2.97 µg/mL | 4 µg/mL | 8 µg/mL | 8 µg/mL | 4 µg/mL | 4 µg/mL | 4 µg/mL |
| N-{3-[2-(piperidin-1-yl)ethyl]thioureidyl}nystatin A1 [Compound N12] | 4.20 µg/mL | 8 µg/mL | 8 µg/mL | 16 µg/mL | 4 µg/mL | 8 µg/mL | 8 µg/mL |
| CC1OC(O[C@H]2/C=C/C=C/C=C/C=C/CC/C=C/C=C/[C@H](C)[C@@H](O)[C@@H](C)[C@H](C)OC(=O)C[C@H](O)C[C@H](O)C[C@H](O)CC[C@@H](O)[C@H](O)CC3(O)C[C@H](O)[C@@H](C(=O)O)[C@H](C2)O3)C(O)C(NC2CC(=O)N(CC(C)(C)CN(C)C)C2=O)C1O (some centres unmarked) [Compound N10, N—[N′-3-(N″,N″-dimethylamino)-2,2-dimethylpropylsuccinimidyl]nystatin A1] | 5.47 µg/mL | 8 µg/mL | 16 µg/mL | 16 µg/mL | 4 µg/mL | 8 µg/mL | 8 µg/mL |
| N—[N′-2-(pyrrolidin-1-yl)ethylsuccinimidyl]nystatin A1 [Compound N11] | 3.91 µg/mL | 8 µg/mL | 8 µg/mL | 8 µg/mL | 4 µg/mL | 8 µg/mL | 8 µg/mL |
| C[C@@H]1[C@H](O)[C@@H](C)/C=C/C=C/CC/C=C/C=C/C=C/C=C/[C@H](O[C@@H]2O[C@H](C)[C@@H](O)[C@H](NC3CC(=O)N(CCCN(C)C)C3=O)[C@@H]2O)C[C@@H]2O[C@](O)(C[C@@H](O)C[C@@H](O)[C@H](O)CC[C@@H](O)C[C@@H](O)CC(=O)O[C@H]1C)C[C@H](O)[C@H]2C(=O)O (some centres unmarked) [Compound N6, N—[N′-3-(N″,N″-dimethylamino)propylsuccinimidyl]nystatin A1] | 5.52 µg/mL | 8 µg/mL | 16 µg/mL | 16 µg/mL | 4 µg/mL | 8 µg/mL | 8 µg/mL |
| CC1C=CC=CCCC=CC=CC=CC=CC(OC2OC(C)C(O)C(N(CCCN(C)C)CC3(O)OCC(O)C(O)C3O)C2O)CC2OC(O)(CC(O)C(O)CCC(O)CC(O)CC(O)CC(=O)OC(C)C(C)C1O)CC(O)C2C(=O)O (centres unmarked) [Compound N30, N-fructosyl-N-[3-(N′,N′-dimethylamin)propyl]nystatin A1] | 5.79 µg/mL | 8 µg/mL | 16 µg/mL | 16 µg/mL | 8 µg/mL | 16 µg/mL | 8 µg/mL |
| N,N-diethylnystatin A1 [Compound N24] | 3.82 µg/mL | 8 µg/mL | 16 µg/mL | 16 µg/mL | 4 µg/mL | 8 µg/mL | 8 µg/mL |
| CCN(CC1(O)OCC(O)C(O)C1O)C1C(O)C(C)OC(OC2C=CC=CC=CC=CCCC=CC=CC(C)C(O)C(C)C(C)OC(=O)CC(O)CC(O)CC(O)CCC(O)C(O)CC3(O)CC(O)C(C(=O)O)C(C2)O3)C1O (centres unmarked) [Compound N29, N-fructosyl-N-ethylnystatin A1] | 3.56 µg/mL | 8 µg/mL | 16 µg/mL | 16 µg/mL | 8 µg/mL | 8 µg/mL | 8 µg/mL |
| C[C@@H]1[C@H](O)[C@@H](C)/C=C/C=C/CC/C=C/C=C/C=C/C=C/[C@H](O[C@@H]2O[C@H](C)[C@@H](O)[C@H](NC(=S)NCCN3CCN(C)CC3)[C@@H]2O)C[C@@H]2O[C@](O)(C[C@@H](O)C[C@@H](O)[C@H](O)CC[C@@H](O)C[C@@H](O)CC(=O)O[C@H]1C)C[C@H](O)[C@H]2C(=O)O [Compound N15, N-{3-[2-(4-methylpiperazin-1-yl)ethyl]thioureidyl}nystatin A1] | 5.74 µg/mL | 8 µg/mL | 16 µg/mL | 16 µg/mL | 4 µg/mL | 8 µg/mL | 8 µg/mL |
| N-{3-[3-(imidazo-1-yl)propyl]thioureidyl}nystatin A1 [Compound N20] | 6.47 µg/mL | 8 µg/mL | 16 µg/mL | 16 µg/mL | 8 µg/mL | 8 µg/mL | 8 µg/mL |
| CC1OC(O[C@H]2/C=C/C=C/C=C/C=C/CC/C=C/C=C/[C@H](C)[C@@H](O)[C@@H](C)[C@H](C)OC(=O)C[C@H](O)C[C@H](O)C[C@H](O)CC[C@@H](O)[C@H](O)CC3(O)C[C@H](O)[C@@H](C(=O)O)[C@H](C2)O3)C(O)C(NC2CC(=O)N(CCN(C)C)C2=O)C1O (some centres unmarked) [Compound N7, N—[N′-2-(N″,N″-dimethylamino)ethylsuccinimidyl]nystatin A1] | 3.99 µg/mL | 8 µg/mL | 8 µg/mL | 16 µg/mL | 4 µg/mL | 8 µg/mL | 8 µg/mL |
